In patent publication US9586931B2 (Merck Sharp & Dohme Corp., priority 2012, dated 2017) one finds IC50 data, which are given here for 29 molecules.

One may read the IC50 as the concentration that inhibits the measured activity by half.

Values joined by “and” are separate entries in the source; they are usually repeats but may differ in a detail not shown here. Equal entries are not always repeated.

The experiment addresses T1, recombinant human GST-Syk (Homo sapiens, UniProt P43405).
T1 construct: purchased Carna Biosciences 08-176
Kind of experiment: Homogeneous Time-Resolved Fluorescence (HTRF) assay for the recombinant human Syk enzyme. Conditions: recombinant human GST-Syk 5 pM, ATP 25 μM, 10-dose titration 10 μM to 0.508 nM; read-out: rhSYK Activity IC50. Format: biochemical. In a few lines:
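Detection used time-resolved fluorescence 30 min after adding a quench mix (40 mM EDTA, 15 mM Tris pH 7.5, 0.01% Tween 20) containing 2 nM Europium anti-pTyr antibody and 70 nM streptavidin-APC. This followed 45 min of room-temperature peptide phosphorylation by recombinant GST-tagged human Syk.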
A general note: Time-resolved FRET reads energy transfer from a long-lived donor to a nearby acceptor.
Consider `Cc1cc(Nc2cc(C(C)(C)C)ccn2)nc(-c2cn(C(C)c3ccc(C(=O)O)cc3)nn2)c1` (centres unmarked) [Example 2.12, 4-[1-(4-{6-[(4-tert-butylpyridin-2-yl)amino]-4-methylpyridin-2-yl}-1H-1,2,3-triazol-1-yl)ethyl]benzoic acid], for which the IC50 stood at 5.5 nM.
Under `Cc1cc(Nc2nccc(C(F)(F)F)n2)cc(-c2cn(C(C)C(O)CC#N)nn2)c1` (single isomer, unassigned) [Example 4.6, 3-hydroxy-4-[4-(3-methyl-5-{[4-(trifluoromethyl)pyrimidin-2-yl]amino}phenyl)-1H-1,2,3-triazol-1-yl]pentanenitrile] stands 45.5 nM.
Under `Cc1cc(Nc2nccc(C(F)(F)F)n2)cc(-n2cc(C3(O)CCC(C(=O)O)C(C)(C)C3)nn2)c1` (centres unmarked) [Example 15.1, 4-hydroxy-2,2-dimethyl-4-[1-(3-methyl-5-{[4-(trifluoromethyl)pyrimidin-2-yl]amino}phenyl)-1H-1,2,3-triazol-4-yl]cyclohexanecarboxylic acid] stands 6.5 nM; under `Cc1cc(Nc2cc(C(F)F)ccn2)nc(-c2cn(CC(C)(O)CC#N)nn2)c1` (single isomer, unassigned) [Example 23.2, 4-(4-(6-((4-(difluoromethyl)pyridin-2-yl)amino)-4-methylpyridin-2-yl)-1H-1,2,3-triazol-1-yl)-3-hydroxy-3-methylbutanenitrile], 9 nM; under `Cc1cc(Nc2nccc(C(F)F)n2)cc(-c2cn(CC3=CCC(=O)N=C3)nn2)c1` [Example 7.16, 5-((4-(3-((4-(difluoromethyl)pyrimidin-2-yl)amino)-5-methylphenyl)-1H-1,2,3-triazol-1-yl)methyl)pyridin-2(3H)-one], 2.3 nM.
Regarding `Cc1cc(Nc2cc(C(F)(F)F)ccn2)nc(-c2cn(CC(O)C(O)COc3ccccc3Cl)nn2)c1` (centres unmarked) [Example 10.8, 1-(2-chlorophenoxy)-4-[4-(4-methyl-6-{[4-(trifluoromethyl)pyridin-2-yl]amino}pyridin-2-yl)-1H-1,2,3-triazol-1-yl]butane-2,3-diol], the IC50 came to 63.3 nM.
With `Cc1cc(Nc2nccc(C(F)(F)F)n2)cc(-c2cn(CC(N)=O)nn2)c1` [Example 5.79, 2-[4-(3-methyl-5-{[4-(trifluoromethyl)pyrimidin-2-yl]amino}phenyl)-1H-1,2,3-triazol-1-yl]acetamide], the 50% inhibitory concentration (IC50) was 73.8 nM and 81.8 nM.
Consider `Cc1cc(Nc2nccc(C(F)(F)F)n2)cc(-n2cc([C@]3(O)CC[C@@H](C(=O)O)CC3)nn2)c1` [Example 15.4, cis-4-hydroxy-4-[1-(3-methyl-5-{[4-(trifluoromethyl)pyrimidin-2-yl]amino}phenyl)-1H-1,2,3-triazol-4-yl]cyclohexanecarboxylic acid], for which the IC50 worked out at 12.5 nM.
For `Cc1cc(Nc2ncc(F)c(C(F)F)n2)cc(-c2cn(Cc3ccc(O)nc3)nn2)c1` [Example 32, 5-((4-(3-((4-(difluoromethyl)-5-fluoropyrimidin-2-yl)amino)-5-methylphenyl)-1H-1,2,3-triazol-1-yl)methyl)pyridin-2-ol], the IC50 was determined as 6.8 nM.
Regarding `Cc1cc(Nc2cc(C(F)(F)F)ccn2)nc(-c2cn(CC(O)C(C)C)nn2)c1` (centres unmarked) [Example 4.24, 3-methyl-1-[4-(4-methyl-6-{[4-(trifluoromethyl)pyridin-2-yl]amino}pyridin-2-yl)-1H-1,2,3-triazol-1-yl]butan-2-ol], the IC50 was 8.3 nM.
Under `Cc1cc(Nc2cc(C(F)F)ccn2)nc(-c2cn(CC3OC(=O)NC3C)nn2)c1` (single isomer, unassigned) [Example 7.44, 5-{[4-(6-{[4-(difluoromethyl)pyridin-2-yl]amino}-4-methylpyridin-2-yl)-1H-1,2,3-triazol-1-yl]methyl}-4-methyl-1,3-oxazolidin-2-one] stands 18 nM; under `Cc1cc(Nc2cc(C(F)(F)F)ccn2)nc(-c2cn(CC(O)c3ccc(C(=O)O)cc3)nn2)c1` (centres unmarked) [Example 3.18, 4-{1-hydroxy-2-[4-(4-methyl-6-{[4-(trifluoromethyl)pyridin-2-yl]amino}pyridin-2-yl)-1H-1,2,3-triazol-1-yl]ethyl}benzoic acid], 1.9 nM; under `Cc1cc(Nc2nccc(C(F)(F)F)n2)cc(-c2ncnn2C[C@H](O)CO)c1` [Example 2.15, (2S)-3-[5-(3-methyl-5-{[4-(trifluoromethyl)pyrimidin-2-yl]amino}phenyl)-1H-1,2,4-triazol-1-yl]propane-1,2-diol], 3150 nM.
On to `Cc1cc(Nc2cc(C(F)(F)F)ccn2)nc(-c2cn(CC3(O)CCC3)nn2)c1` [Example 4.27, 1-{[4-(4-methyl-6-{[4-(trifluoromethyl)pyridin-2-yl]amino}pyridin-2-yl)-1H-1,2,3-triazol-1-yl]methyl}cyclobutanol], for which the IC50 was 2 nM.
Under `Cc1cc(Nc2cc(C(F)F)ccn2)nc(-c2cn(CC3(C)CNC(=O)O3)nn2)c1` (single isomer, unassigned) [Example 7.9, 5-((4-(6-((4-(difluoromethyl)pyridin-2-yl)amino)-4-methylpyridin-2-yl)-1H-1,2,3-triazol-1-yl)methyl)-5-methyloxazolidin-2-one] stands 8.4 nM; under `Cc1cc(Nc2cc(C(F)F)ccn2)nc(-c2cn(C3CCCC(O)C3O)nn2)c1` (centres unmarked) [Example 21.38, 3-(4-(6-((4-(difluoromethyl)pyridin-2-yl)amino)-4-methylpyridin-2-yl)-1H-1,2,3-triazol-1-yl)cyclohexane-1,2-diol], 3.7 nM; under `COC(=O)C1CCC(O)(Cn2cc(-c3cc(C)cc(Nc4nccc(C(F)(F)F)n4)c3)nn2)CC1(C)C` (centres unmarked) [Example 4.11, methyl 4-hydroxy-2,2-dimethyl-4-{[4-(3-methyl-5-{[4-(trifluoromethyl)pyrimidin-2-yl]amino}phenyl)-1H-1,2,3-triazol-1-yl]methyl}cyclohexanecarboxylate], 145 nM.
The same measure for `Cc1cc(Nc2cc(C(F)(F)F)ccn2)nc(-c2cn(C[C@@H](O)CO)nn2)c1` [Example 5.19, (2R)-3-[4-(4-methyl-6-{[4-(trifluoromethyl)pyridin-2-yl]amino}pyridin-2-yl)-1H-1,2,3-triazol-1-yl]propane-1,2-diol]: 4 nM.
The same measure for `Cc1cc(Nc2nccc(C(F)(F)F)n2)cc(-c2cn(CC(O)C(=O)O)nn2)c1` (racemic) [Example 5.61, 2-hydroxy-3-[4-(3-methyl-5-{[4-(trifluoromethyl)pyrimidin-2-yl]amino}phenyl)-1H-1,2,3-triazol-1-yl]propanoic acid]: 29.4 nM.
Regarding `Cc1cc(Nc2nccc(C(F)(F)F)n2)cc(-c2cn(CCCN3CCNC3=O)nn2)c1` [Example 5.71, 1-{3-[4-(3-methyl-5-{[4-(trifluoromethyl)pyrimidin-2-yl]amino}phenyl)-1H-1,2,3-triazol-1-yl]propyl}imidazolidin-2-one], the IC50 came to 152 nM.
On to `Cc1cc(Nc2nccc(C(F)(F)F)n2)cc(-c2cn(Cc3ccc(CC(=O)O)cc3)nn2)c1` [Example 5.2, (4-{[4-(3-methyl-5-{[4-(trifluoromethyl)pyrimidin-2-yl]amino}phenyl)-1H-1,2,3-triazol-1-yl]methyl}phenyl)acetic acid], for which the IC50 stood at 4.4 nM.
Consider `Cc1cc(Nc2cc(C(F)(F)F)ccn2)nc(-c2cn(C[C@H]3CCC(=O)N3)nn2)c1` [Example 5.3, (5R)-5-{[4-(4-methyl-6-{[4-(trifluoromethyl)pyridin-2-yl]amino}pyridin-2-yl)-1H-1,2,3-triazol-1-yl]methyl}pyrrolidin-2-one], for which the IC50 was 129 nM.
The same measure for `Cc1cc(Nc2nccc(C(F)(F)F)n2)cc(-c2cn(CCCN)nn2)c1` [Example 5.48, N-{3-[1-(3-aminopropyl)-1H-1,2,3-triazol-4-yl]-5-methylphenyl}-4-(trifluoromethyl)pyrimidin-2-amine]: 32.9 nM; for `CCC(O)C(O)Cn1cc(-c2cc(C)cc(Nc3cc(C(F)(F)F)ccn3)n2)nn1` (centres unmarked) [Example 10.7, 1,4,5-trideoxy-1-[4-(4-methyl-6-{[4-(trifluoromethyl)pyridin-2-yl]amino}pyridin-2-yl)-1H-1,2,3-triazol-1-yl]pentitol]: 30.4 nM; for `Cc1cc(Nc2cc(C(F)(F)F)ccn2)nc(-c2cn(C3CN(C(=O)C(C)O)CC3O)nn2)c1` (single isomer, unassigned) [Example 13.4, 1-[2-hydroxypropanoyl]-4-[4-(4-methyl-6-{[4-(trifluoromethyl)pyridin-2-yl]amino}pyridin-2-yl)-1H-1,2,3-triazol-1-yl]pyrrolidin-3-ol]: 15 nM.
In the case of `Cc1cc(Nc2cc(C(F)F)ccn2)nc(-c2cn(CC3OC(=O)NC3C)nn2)c1` (single isomer, unassigned) [Example 7.15, 5-((4-(6-((4-(difluoromethyl)pyridin-2-yl)amino)-4-methylpyridin-2-yl)-1H-1,2,3-triazol-1-yl)methyl)-4-methyloxazolidin-2-one], the IC50 is 4.3 nM.
The same measure for `Cc1cc(Nc2cc(C(F)(F)F)ccn2)nc(-c2cn(C(C(=O)O)c3ccc(F)cc3)nn2)c1` (centres unmarked) [Example 3.10, (4-fluorophenyl)[4-(4-methyl-6-{[4-(trifluoromethyl)pyridin-2-yl]amino}pyridin-2-yl)-1H-1,2,3-triazol-1-yl]acetic acid]: 3.9 nM; for `Cc1cc(Nc2ncc(F)c(C(F)F)n2)cc(-c2cn(CC(C)(O)C(C)(C)O)nn2)c1` (centres unmarked) [Example 21.34, 1-[4-(3-{[4-(difluoromethyl)-5-fluoropyrimidin-2-yl]amino}-5-methylphenyl)-1H-1,2,3-triazol-1-yl]-2,3-dimethylbutane-2,3-diol]: 18.2 nM; for `Cc1cc(Nc2nccc(C(F)(F)F)n2)cc(-c2cn(CC(=O)N3CCOCC3(C)C)nn2)c1` [Example 5.66, N-(3-{1-[2-(3,3-dimethylmorpholin-4-yl)-2-oxoethyl]-1H-1,2,3-triazol-4-yl}-5-methylphenyl)-4-(trifluoromethyl)pyrimidin-2-amine]: 152 nM.
